Literature values, collected in patent US20100158923A1, “REDUCING POLYGLUTAMINE-BASED AGGREGATION” (Northwestern University, priority 2003, published 2010).
One block for each compound: values may come before it.

What was measured:
GH release = conditions: administered orally and parenterally
IGF-1 levels = conditions: administered subcutaneously
human SST2 = human SST2 (Homo sapiens, UniProt P30874)
human SST2, sequence (P30874 whole entry): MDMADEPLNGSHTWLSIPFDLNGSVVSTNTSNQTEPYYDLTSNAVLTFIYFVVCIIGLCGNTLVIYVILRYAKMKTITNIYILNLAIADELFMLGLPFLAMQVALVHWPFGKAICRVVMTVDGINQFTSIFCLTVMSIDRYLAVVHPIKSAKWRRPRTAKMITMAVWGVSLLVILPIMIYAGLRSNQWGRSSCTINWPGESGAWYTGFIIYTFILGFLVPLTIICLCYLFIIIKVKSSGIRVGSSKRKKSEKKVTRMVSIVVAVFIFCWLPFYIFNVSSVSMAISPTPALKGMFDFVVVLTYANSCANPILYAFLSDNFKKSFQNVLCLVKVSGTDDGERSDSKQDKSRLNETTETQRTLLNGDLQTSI

Compound: [N-acetyl-Tyr^1,D-Arg^2] GHRH^1-29NH2 [standard GHRH antagonist]
effect on human GH secretory response to exogenous GHRH (GH secretion; response to exogenous GHRH): inhibits
effect on spontaneous GH secretion (GH secretion; spontaneous GH secretion): lowers

Compound: CC(C)(N)C(=O)N[C@H](COCc1ccccc1)C(=O)N1CCC2(CC1)CN(S(C)(=O)=O)c1ccccc12 [MK-0677]
GH-releasing effects (GH release): potent GH-releasing effects

Compound: Pegvisomant: modified human GH in which nine amino acids have been replaced, with polyethylene glycol polymers; GH receptor antagonist
effect on IGF-1 levels (IGF-1 levels): dose dependent reduction

selectivity (human SST2; SST2 binding, comparison receptors not stated): highly selective
Kd (human SST2; binding to human SST2, read-out: apparent Kd): 0.01 nM
Compound: CC(C)(C)OC(=O)[C@H](CCCCN)NC(=O)[C@@H](Cc1c[nH]c2ccccc12)NC(=O)N1CCC(n2c(=O)[nH]c3ccccc32)CC1 [L-054,522]
